Laboratory results from patent US4645769A, “1-oxa-1-dethia-cephalosporin compounds and antibacterial agent comprising the same” (Merck & Co., Inc., priority 1985, dated 1987).
Where a name gives a salt, the structure may show the parent alone.

Legend:
[1] = test system: Streptococcus faecalis ATCC 8043; assay: Minimum Inhibitory Concentration (MIC), antibacterial spectrum in vitro; assay type: cell-based; settings: Enterococcus faecalis, ATCC8043; Streptococcus faecalis ATCC 8043; read-out: Minimum Inhibitory Concentration (MIC)
[2] = test system: Pseudomonas aeruginosa E-2; assay: as above; assay type: cell-based; settings: E2; Pseudomonas aeruginosa E-2; read-out: Minimum Inhibitory Concentration (MIC)
[3] = test system: Staphylococcus aureus 209 P JC-1; assay: as above; assay type: cell-based; settings: 209PJC1; Staphylococcus aureus 209 P JC-1; read-out: Minimum Inhibitory Concentration (MIC)
[4] = test system: Salmonella typhimurium LT-2; assay: as above; assay type: cell-based; settings: Salmonella enterica; Salmonella typhimurium LT-2; read-out: Minimum Inhibitory Concentration (MIC)
[5] = test system: Staphylococus aureus (Smith I); assay: Efficacy in Mice Infected with Staphylococus aureus (Smith I); assay type: in vivo; settings: Staphylococcus aureus, sc, 168 h, St. aureus (Smith I) intraperitoneal infection, single subcutaneous dose one hour after infection, 7 days
From the text: (§1) A systemic infection was produced by intraperitoneal injection of the appropriate pathogen to mice (five male mice in each group, average body weight 20 g), and the mice were received single subcutaneous dose of the compound one hour after the infection.

[6] = test system: Pseudomonas aeruginosa MB-3833; assay: Minimum Inhibitory Concentration (MIC), antibacterial spectrum in vitro; assay type: cell-based; settings: MB3833; Pseudomonas aeruginosa MB-3833; read-out: Minimum Inhibitory Concentration (MIC)
[7] = test system: Esherichia coli NIHJ JC-2; assay: as above; assay type: cell-based
Proteus morganii 1510 = assay: as above; assay type: cell-based; settings: Morganella morganii; Proteus morganii 1510; read-out: Minimum Inhibitory Concentration (MIC)
[8] = test system: Citrobacter freundii GN-346; assay: as above; assay type: cell-based; settings: GN346; Citrobacter freundii GN-346; read-out: Minimum Inhibitory Concentration (MIC)
Enterobacter cloacae P99 = assay: as above; assay type: cell-based; settings: P99, read-out: Minimum Inhibitory Concentration (MIC)
Esherichia coli TEM DC-2 = assay: as above; assay type: cell-based; settings: read-out: Minimum Inhibitory Concentration (MIC)
[9] = test system: Pseudomonas aeruginosa (GN 10362); assay: Efficacy in Mice Infected with Pseudomonas aeruginosa (GN 10362); assay type: in vivo; settings: GN10362, sc, 168 h, Ps. aeruginosa (GN 10362) intraperitoneal infection, mice, single subcutaneous dose one hour after infection, 7 days, read-out: ED 50
From the text: as §1

[10] = Concentration in Blood Serum after subcutaneous dosing (bioassay using Escherichia coli); assay type: in vivo; settings: mouse, sc, 25 mg/Kg subcutaneously, mice
Experimental: The concentration of the compound in the serum was determined by bioassay using Escherichia coli as assay microorganism.

[11] = test system: Klebsiella pneumoniae PCI 602; assay: Minimum Inhibitory Concentration (MIC), antibacterial spectrum in vitro; assay type: cell-based; settings: PCI602; Klebsiella pneumoniae PCI 602; read-out: Minimum Inhibitory Concentration (MIC)
Pseudomonas aeruginosa = assay: Antibacterial activity against Pseudomonas aeruginosa (from Table 1); assay type: cell-based; settings: in words
[12] = test system: Pseudomonas aeruginosa RPL-11; assay: Minimum Inhibitory Concentration (MIC), antibacterial spectrum in vitro; assay type: cell-based; settings: RPL11; Pseudomonas aeruginosa RPL-11; read-out: Minimum Inhibitory Concentration (MIC)

C[n+]1ccc(SCC2=C(C(=O)[O-])N3C(=O)C(NC(=O)C(=NOC(C)(C)C(=O)O)c4csc(N)n4)C3OC2)cc1 [Compound 14, (6R,7R)-7-((Z)-2-(2-Aminothiazole-4-yl)-2-(2-carboxyprop-2-oxyimino)acetamide-3-(1-methylpyridinium-4-yl-thiomethyl)-1-oxa-1-dethiaceph-3-em-4-carboxylate (Sodium Salt)]
MIC [1]: > 100 mg/L
MIC [2]: 1.56 mg/L
MIC [3]: 1.56 mg/L
MIC [4]: < 0.025 mg/L
ED50 [5]: 0.016 mg/kg
MIC [6]: 1.56 mg/L
MIC [7]: 0.1 mg/L
MIC (Proteus morganii 1510): 3.13 mg/L
MIC [8]: 50 mg/L
MIC (Enterobacter cloacae P99): 128 mg/L
MIC (Esherichia coli TEM DC-2): 0.25 mg/L
ED50 [9]: 0.13 mg/kg
concentration at 0.5 h ([10]; 1/2 hour): 8.8 µg/mL
concentration at 0.25 h ([10]; 1/4 hour): 11.5 µg/mL
concentration at 5 min ([10]; 1/12 hour): 18 µg/mL
concentration at 1 h ([10]; 1 hour): 5 µg/mL
MIC [11]: 0.1 mg/L
effectiveness against Pseudomonas aeruginosa (Pseudomonas aeruginosa): effective against Pseudomonas aeruginosa
MIC [12]: 64 mg/L
